Results on two compounds are retold here after patent US20130183322A1, “IMMUNOSUPPRESSIVE DRUG COMBINATION FOR A STABLE AND LONG TERM ENGRAFTMENT” (YEDA RESEARCH AND DEVELOPMENT CO., LTD., priority 2011, published 2013).

For experiment [1], the system named is C3H/Hej (H-2Kk) recipient mice. Briefly: Chimerism induction: allogeneic T-depleted BM transplant under non myeloablative conditioning and co-stimulatory blockade. The format is in vivo. On the procedure:
C3H/Hen recipient mice were conditioned with busulfan (2×30 mg/Kg) and T cell debulking with […] anti-CD4 and anti-CD8. Post transplant treatment included […] CTLA4/FC, […] anti-CD48, and 0.1 mg FTY720 administered at the indicated time points.
Non myeloablative conditioning and co-stimulatory blockade Protocol: C3H/Hej (H-2K^k) recipient mice were conditioned with 30 mg/kg IV Busulfex on days −3 and −2 following T cell debulking on day −6 with 300 μg anti-CD4 (Bio Express, clone Gk1.5) and anti-CD8 (Bio Express, cone 53.6.72) antibodies. On day 0, 25×10^6 T-depleted BM cells from Balb/c-Nude (H-2D^d) donors were transplanted and subjected to co-stimulation blockade consisting of 200 μg CTLA4/FC (Chimerigen Laboratories), 250 μg anti-CD48 (Bio Express, clone HM 48) and 0.1 mg FTY720 (Novartis) that was administered as follows: CTLA4/FC and anti-CD48 were injected IP on days 0, 2, 4, 6, 21 and 35 while FTY720 was inoculated per OS for 5 days from day 0 to 5 and from day 6 till day 90 twice a week. Chimerism analysis was monitored every 30 days by FACS analysis. […]
Multilineage Chimerism was performed on donor chimera 70 to 163 days post transplant. […] Fluorescence-activated cell sorting (FACS) analysis was performed using a modified Becton Dickinson FACScan.

The test system of experiment [2] is C57BL/6 (Ly-5.2) recipient mice. As to the kind of experiment: Determination of the minimal myeloablation with busulphan: donor type chimerism after congenic T cell depleted bone marrow transplant. The format is in vivo. From the text:
Animals: 6-12 week old female mice were used of the following strains: C57BL/6 (B6, recipient, H-2b, Ly-5.2), B6.SJL-Ptprca Pep3b/BoyJ (congenic strain, donor, H-2b, Ly-5.1) Balb/c (donor, H-2d) and C3H/Hen (recipient, H-2k) mice (all purchased from Harlan Laboratories Ltd, Ein Kerem Breeding farm Jerusalem). All mice were housed under specific pathogen free conditions and maintained under conditions approved by the Institutional Animal Care and Use Committee at the Weizmann Institute of Science.
Determination of the minimal myeloablation with Busulphan: Different groups of C57BL/6 (Ly-5.2) recipient mice were conditioned with the following final doses of IV Busulfex (Otsuka America Pharmaceutical, Inc.): 10, 20, 40, 50, 60, 80, and 100 mg/Kg/mouse. The final doses of IV Busulfex were divided in two and administered (IP) on day −2 and −1. On day 0, 25×10^6 T-depleted bone marrow cells isolated from B6.SJL-Ptprca Pep3b/BoyJ (Ly-5.1) donors were transplanted (IV) and the establishment of donor type chimerism was defined 1 and 12 month post transplant in the blood, spleen, and BM by FACS analysis of the congenic donor marker (Ly-5.1). Phenotypic expression analysis of CD8, CD4, CD45/B220 and CD11b markers on the LY-5.1^+ (donor) cells in the spleen and the BM of the donor chimera, was performed 12 month post transplant.
Flow cytometry for chimerism and multilineage analysis: For chimerism analysis, blood mononuclear cells were stained with labeled antibodies specific for Host (H-2K^k-phycoerythrin (PE)) and donor (H-2D^d-fluorescein isothiocyanate (FITC)) MHC class-I antigens. In the congenic model, anti-CD45.2-PE and anti-CD45.1-FITC antibodies were used to distinguish between the host and the donor.
Considering the importance of providing empty niches for successful BM engraftment, the present inventors initially determined the minimal myeloablation with busulphan which induced durable chimerism following infusion of congenic B6-SJL (Ly-5.1) T cell depleted bone marrow (TDBM, 25×10^6) into B6 (Ly-5.2) mice. […] Consequently, the sublethal dose of 60 mg/Kg was selected for further use in all attempts to induce allogeneic chimerism, in conjunction with transient debulking of host lymphocytes by a single infusion of anti-CD4 and anti-CD8 depleting antibodies.

Structures are written as SMILES.

With `CCCCCCCCc1ccc(CCC(N)(CO)CO)cc1.Cl` [FTY720, 2-amino-2-[2-(4-octylphenyl)ethyl]propane-1,3-diol hydrochloride], the “chimerism achieved (in words)” value in experiment [1] (allogeneic megadose TDBM after busulfan 60 mg/Kg plus anti-CD4/anti-CD8 debulking, post transplant treatment) is reported as “no chimerism”. Further, the “mice with donor type chimerism (number of mice)” value in experiment [1] (two independent experiments, median follow-up 116 days (range 70 to 163) beyond cessation of immune suppression, for the combination, mice with more than 80% chimerism) was 0 out of 7.
As to `CS(=O)(=O)OCCCCOS(C)(=O)=O` [busulphan], the donor type chimerism result was “above 50%” in experiment [2] (at doses higher than 50 mg/Kg (tested 10 to 100 mg/Kg)); 40±26% in experiment [2] (busulphan 50 mg/Kg, congenic B6-SJL (Ly-5.1) TDBM 25x10^6 into B6 (Ly-5.2) mice); 66±7% in experiment [2] (busulphan 60 mg/Kg, congenic B6-SJL (Ly-5.1) TDBM 25x10^6 into B6 (Ly-5.2) mice); 75±2% in experiment [2] (busulphan 100 mg/Kg, congenic B6-SJL (Ly-5.1) TDBM 25x10^6 into B6 (Ly-5.2) mice).
